Source: patent US9737602B2, “Carotenoid particles and uses thereof” (IP SCIENCE LIMITED, priority 2011, dated 2017)
Blank lines part the entries; values can stand above or below the compound they belong to.

Assays:
clinical = format: in vivo, human
Protocol: (§1) 20 Coronary Heart Disease (CHD) patients who were positive for anti-Chlamydia IgG and hypercholesterolaemia were identified. These patients were randomised in 4 groups of 5 patients, and each of them received daily either in: • 1st group—7 mg of lycopene supplement (in 70 mg of tomato oleoresin), or • 2nd group—[…] of WP, or • 3rd group—mechanical mixture of 7 mg of lycopene (in 70 mg of tomato oleoresin), and 70 mg of WP, or • 4th group—WP-Lycosome comprising of 7 mg of lycopene (in 70 mg of tomato oleoresin) and 70 mg of WP.

[1] = Clinical trial in CHD patients: total serum cholesterol; format: in vivo, human
Protocol: as §1
(§2) Serum anti-Chlamydia IgG and total serum cholesterol were measured after 4 weeks.

Chlamydia pneumoniae = assay: Clinical trial in CHD patients: serum anti-Chlamydia IgG (IgG-ELISA); format: in vivo, human; settings: for Chlamydia pneumoniae load in IgG-ELISA, ELISA reading: below 0.300-0.400 is considered negative
Protocol: as §1, §2

[2] = Pharmacokinetic study on volunteers: unmodified trans-resveratrol in blood; format: in vivo; settings: human, serum, po, 100 mg, 100 mg trans-Resveratol oral, individual volunteers ID 1, 2, read-out: AUC for 24 hours
Protocol: The group of 5 volunteers comprised of 2 female and 3 male clinically healthy Caucasian persons, age between 23 and 35 years. They were asked, before commencing this experiment, to go for 3-4 days “wash-out”, when consumption of any grape, wine, peanut, chocolate and other products which might contain them.
Blood samples were taken from their median cubital or cephalic veins at the baseline point. […]
After taking blood its serum was separated, aliquoted and stored at −80° C. for further testing.

[3] = difference after 4 weeks of administration

SMILES: CC(C)=CCC/C(C)=C/C=C/C(C)=C/C=C/C(C)=C/C=C/C=C(C)/C=C/C=C(C)/C=C/C=C(\C)CCC=C(C)C [GA Lycopene, lycopene]
Total serum Lycopene, Δ (clinical; [3]): +116 ng/ml | concentration at 0 w (clinical; human, in vivo): 179 ± 21 ng/mL | concentration at 4 w (clinical; human, in vivo): 295 ± 23 ng/mL | Total serum Cholesterol ([1]; 0 w): 5.4 ± 0.23 mmol/L | Total serum Cholesterol ([1]; 4 w): 4.7 ± 0.21 mmol/L | reduction of serum cholesterol ([1]; after 4 weeks): 0.7 mmol/L | Total serum Cholesterol, Δ [1, 3]: -0.7 mmol/L | number of sero-positive patients (Chlamydia pneumoniae; 0 w): 10 | Chlamydia pneumoniae load in IgG-ELISA, ELISA reading (Chlamydia pneumoniae; 0 w, CHD patients): 0.997 ± 0.098 | number of sero-positive patients (Chlamydia pneumoniae; 1 w): (10) | number of sero-positive patients (Chlamydia pneumoniae; 2 w): (4) | number of sero-positive patients (Chlamydia pneumoniae; 3 w): (2) | time by which all patients were sero-negative / anti-Chlamydia IgG cleared from serum (Chlamydia pneumoniae; 4-week trial): in the last week of the trial | number of sero-positive patients (Chlamydia pneumoniae; 4 w): 0 | Chlamydia pneumoniae load in IgG-ELISA, ELISA reading (Chlamydia pneumoniae; 4 w of daily administration): 0.288 ± 0.043 | effect on level of Chlamydia infection (specific IgG), in words (Chlamydia pneumoniae; CHD patients, daily for 4 weeks): some ability to reduce Chlamydia infection

AUC [2]: 432 ng·h/mL
SMILES: Oc1ccc(/C=C/c2cc(O)cc(O)c2)cc1 [Resveratrol, 3,5,4′-trihydroxy-trans-stilbene]
